Test results as given in US20220204654A1, “CYCLODEXTRIN SUPRAMOLECULAR SCAFFOLDS AND USES THEREOF” (Massachusetts Institute of Technology, priority 2019, published 2022).

How the values were obtained:
[1] = Isothermal titration calorimetry (ITC) glucose binding assay; conditions: ITC binding isotherm, read-out: binding affinity (Kd)
Procedure: Binding studies were then carried out using isothermal titration calorimetry (ITC) to measure thermodynamic properties during binding. ITC was chosen as the preferred method to confirm binding of glucose as this assay excludes the possibilities of any false positive data. The ITC based binding assay needed significant optimization with respect to macromolecule concentration, choice of buffer, ways of desalting, concentration of the glucose solution, etc.

[2] = unmodified cyclodextrin with adamantine (AD), comparison statement; cited from earlier work

Row | Kd [1] [mM] | Compound | dissociation constant [2]
1 | ~5 | OCC1O[C@@H]2O[C@@H]3C(CO)O[C@H](O[C@@H]4C5CSCc6ccc(cc6)-c6ccc(cc6)CSCC6O[C@H](O[C@@H]7C(CO)O[C@H](O[C@H]1C(O)C2O)C(O)C7O)C(O)C(O)[C@@H]6O[C@H]1OC(CO)[C@@H](O[C@H]2OC(CO)[C@@H](O[C@@H](O5)C(O)C4O)C(O)C2O)C(O)C1O)C(O)C3O (some centres unmarked) [CDC1] | 
2 |  | cyclodextrin | micromolar range
